Measurements published in US9718823B2, “2, 6-Di-nitrogen-containing substituted purine derivative, and preparation method, pharmaceutical composition and use thereof” (Zhejiang Medicine Co., Ltd. Xinchang Pharmaceutical Factory, priority 2013, dated 2017).
Counter-ions that a name gives are not always drawn. Like-named read-outs stand apart in the source and are kept apart here.

Legend:
PI3K α = molecular target: T1, PI3K α (Homo sapiens, UniProt P42336); assay: Inhibitory activity to PI3K α, PI 3-Kinase (human) HTRF Assay kit; assay type: biochemical; conditions: read-out: % Inhibition Rate to PI3K α
T1 construct: purchased Millipore 14-602
Summary of the method: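 HTRF assay using human PI3Kα at 8 ng/well, 100 μM ATP and PIP2 (2× working stock 20 μM) in 20 μL reaction containing 1% DMSO. Screened at 10 μM and 1 μM for percent inhibition, with selected compounds then taken to IC50 determination.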

PI3 K γ = molecular target: T2, PI3 K γ (Homo sapiens, UniProt P48736); assay: Inhibitory activity to PI3K γ, PI 3-Kinase (human) HTRF Assay kit; assay type: biochemical; conditions: for Inhibition rate % to PI3 K γ: dihydrate di-methanesulfonate
T2 construct: purchased Biology, Medicilon
Summary of the method: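 HTRF kinase assay with PI3Kγ at 80 ng/well, 10 μM PIP2 and 100 μM ATP (both final) in DTT-containing reaction buffer, 1% DMSO. Preliminary screen at 10 μM and 1 μM compound, followed by IC50 determination for selected compounds.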

[1] = tested on: BT474 human breast cancer cell strain; assay: Antitumor cell proliferation in vitro, CCK-8 detection kit, BT474; assay type: cell-based; conditions: Homo sapiens, BT-474, 72 h, BT-474 cells, 1st and 2nd test where printed
Protocol: (§1) The half inhibitory concentration IC50 of proliferation of three kinds of tumor cell strain (U87MG, PC-3, BT474) for 12 candidate compounds of the present invention is detected by CCK-8 detection kits.
BT474 human breast cancer cell strain (cell bank of Chinese Academy of Sciences) Reagents and materials:
(§2) The studied compounds are dissolved by DMSO to make the final concentration 10 mM.
(§3) • a) Collecting the cells in logarithmic phase, counting, and resuspending the cells with complete medium. • b) Adjusting the concentration of cells to a suitable concentration, inoculating in 96 well plates, each well is inoculated to 100 μl cell suspension.
(§4) c) incubating cells for 24 hours in a 5% CO2 incubator at temperature of 37° C., under the condition of 100% relative humidity.
(§5) a) The cells in logarithmic phase is collected, counted, resuspended with complete medium. The concentration of cells is adjusted to a suitable concentration (determined in accordance with the optimizable test results of cell density), and the cells is inoculated in 96 well plates, wherein each well is inoculated 100 μl cell suspension, Cells are incubated for 24 hours in 5% CO2 incubator at temperature of 37° C. under the condition of 100% relative humidity.
(§6) b) The test compounds are diluted to 500 μM with culture medium, then diluted in series eight times. […] as 25 μl/well. The final concentrations of the compounds are diluted from 100 μM to 0 μM, with 4 times dilution, and there are a total of 10 concentration points.
(§7) c) Cells are incubated for 72 hours in 5% CO2 incubator at temperature of 37° C. under the condition of 100% relative humidity.
(§8) d) The culture medium is aspirated and discarded, and complete medium containing 10% CCK-8 is incubated in a incubator at 37° C. for 2˜4 hours.
(§9) e) After shocking gently, the absorbance of the culture medium is measured at 450 nm wavelength on SpectraMax M5 Microplate Reader, with the absorbance at 650 nm as reference, to calculate the inhibition rate.

[2] = tested on: PC-3 human prostate cancer cell strain; assay: Antitumor cell proliferation in vitro, CCK-8 detection kit, PC-3; assay type: cell-based; conditions: Homo sapiens, PC-3, 72 h, PC-3 cells, 1st and 2nd test where printed
Protocol: as §1
PC-3 human prostate cancer cell strain (cell bank of Chinese Academy of Sciences)
as §2, §3, §4, §5, §6, §7, §8, §9

PI3Kδ = molecular target: T3, PI3Kδ (Homo sapiens, UniProt O00329); assay: Inhibitory activity to PI3K δ, PI 3-Kinase (human) HTRF Assay kit; assay type: biochemical
T3 construct: purchased Millipore 14-604
Summary of the method: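 Inhibition of human PI3Kδ was assessed with the Millipore PI 3-Kinase (human) HTRF Assay kit. PI3Kδ was screened at 2 ng/well, diluted in 2×PIP2 operating fluid. Reactions were 20 μL and contained 100 μM ATP. Stop solution was Stop A and Stop B mixed 3:1. Detection solution was DM C, DM A and DM B mixed 18:1:1. Compounds were prepared from DMSO stocks, and percent inhibition was reported.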

[3] = 10 μM (Table 7), read-out: Inhibition rate % to PI3Kδ

T2 sequence (P48736 whole entry): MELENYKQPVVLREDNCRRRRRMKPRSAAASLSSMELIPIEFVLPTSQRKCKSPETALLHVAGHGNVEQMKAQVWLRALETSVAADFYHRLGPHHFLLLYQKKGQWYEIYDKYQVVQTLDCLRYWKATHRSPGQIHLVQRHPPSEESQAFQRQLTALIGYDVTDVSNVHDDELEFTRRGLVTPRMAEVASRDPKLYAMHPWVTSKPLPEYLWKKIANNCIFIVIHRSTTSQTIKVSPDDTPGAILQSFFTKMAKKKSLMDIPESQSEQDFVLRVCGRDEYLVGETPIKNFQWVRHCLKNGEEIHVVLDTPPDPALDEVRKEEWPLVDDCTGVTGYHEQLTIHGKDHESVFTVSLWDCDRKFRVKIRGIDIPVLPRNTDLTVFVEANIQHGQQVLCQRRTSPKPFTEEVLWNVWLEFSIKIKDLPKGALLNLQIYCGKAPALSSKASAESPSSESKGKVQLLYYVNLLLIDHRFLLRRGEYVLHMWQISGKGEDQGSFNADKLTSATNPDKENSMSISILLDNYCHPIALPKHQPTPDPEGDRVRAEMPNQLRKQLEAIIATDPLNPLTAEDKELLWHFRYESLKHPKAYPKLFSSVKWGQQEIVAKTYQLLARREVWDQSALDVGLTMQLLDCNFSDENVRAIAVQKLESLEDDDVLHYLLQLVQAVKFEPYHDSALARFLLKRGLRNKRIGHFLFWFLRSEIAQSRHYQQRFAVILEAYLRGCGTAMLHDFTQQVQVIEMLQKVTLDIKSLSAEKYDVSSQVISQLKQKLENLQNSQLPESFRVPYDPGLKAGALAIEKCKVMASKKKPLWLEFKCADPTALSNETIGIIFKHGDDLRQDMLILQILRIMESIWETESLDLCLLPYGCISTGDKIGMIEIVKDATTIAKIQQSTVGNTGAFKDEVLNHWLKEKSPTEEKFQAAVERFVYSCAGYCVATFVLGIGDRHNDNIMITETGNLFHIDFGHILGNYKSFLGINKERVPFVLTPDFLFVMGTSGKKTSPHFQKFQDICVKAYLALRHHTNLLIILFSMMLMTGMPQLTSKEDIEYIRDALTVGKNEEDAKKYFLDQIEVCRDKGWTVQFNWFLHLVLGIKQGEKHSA
T1 sequence (P42336 whole entry): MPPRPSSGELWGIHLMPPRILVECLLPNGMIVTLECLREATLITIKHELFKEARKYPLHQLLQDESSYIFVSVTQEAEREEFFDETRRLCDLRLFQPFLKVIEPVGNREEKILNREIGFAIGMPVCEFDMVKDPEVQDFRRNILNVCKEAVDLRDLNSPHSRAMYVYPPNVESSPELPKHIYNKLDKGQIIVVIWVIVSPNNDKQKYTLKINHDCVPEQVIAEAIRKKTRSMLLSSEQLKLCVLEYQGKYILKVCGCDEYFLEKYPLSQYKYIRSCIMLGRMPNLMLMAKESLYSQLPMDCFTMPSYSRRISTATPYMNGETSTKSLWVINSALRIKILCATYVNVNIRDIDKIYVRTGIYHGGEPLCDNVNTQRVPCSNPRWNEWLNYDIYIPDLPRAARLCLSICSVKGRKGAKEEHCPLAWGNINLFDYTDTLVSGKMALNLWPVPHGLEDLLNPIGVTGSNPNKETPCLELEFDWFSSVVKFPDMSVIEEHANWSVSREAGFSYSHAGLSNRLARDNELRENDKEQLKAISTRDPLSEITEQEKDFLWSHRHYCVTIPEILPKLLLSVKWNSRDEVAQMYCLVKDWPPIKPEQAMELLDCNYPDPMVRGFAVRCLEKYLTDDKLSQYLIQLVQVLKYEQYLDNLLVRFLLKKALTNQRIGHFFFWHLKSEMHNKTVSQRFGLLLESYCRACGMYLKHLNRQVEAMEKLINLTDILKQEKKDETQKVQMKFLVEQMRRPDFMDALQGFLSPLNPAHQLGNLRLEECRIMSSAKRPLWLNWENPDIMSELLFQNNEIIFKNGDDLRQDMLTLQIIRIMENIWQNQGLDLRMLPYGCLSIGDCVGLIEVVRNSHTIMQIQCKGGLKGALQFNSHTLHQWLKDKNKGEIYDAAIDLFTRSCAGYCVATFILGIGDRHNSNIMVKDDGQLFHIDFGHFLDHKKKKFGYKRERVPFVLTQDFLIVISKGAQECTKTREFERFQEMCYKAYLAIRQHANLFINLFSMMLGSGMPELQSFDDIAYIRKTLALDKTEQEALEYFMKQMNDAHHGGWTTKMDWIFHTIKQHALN
T1 sequence (P27986 whole entry partner): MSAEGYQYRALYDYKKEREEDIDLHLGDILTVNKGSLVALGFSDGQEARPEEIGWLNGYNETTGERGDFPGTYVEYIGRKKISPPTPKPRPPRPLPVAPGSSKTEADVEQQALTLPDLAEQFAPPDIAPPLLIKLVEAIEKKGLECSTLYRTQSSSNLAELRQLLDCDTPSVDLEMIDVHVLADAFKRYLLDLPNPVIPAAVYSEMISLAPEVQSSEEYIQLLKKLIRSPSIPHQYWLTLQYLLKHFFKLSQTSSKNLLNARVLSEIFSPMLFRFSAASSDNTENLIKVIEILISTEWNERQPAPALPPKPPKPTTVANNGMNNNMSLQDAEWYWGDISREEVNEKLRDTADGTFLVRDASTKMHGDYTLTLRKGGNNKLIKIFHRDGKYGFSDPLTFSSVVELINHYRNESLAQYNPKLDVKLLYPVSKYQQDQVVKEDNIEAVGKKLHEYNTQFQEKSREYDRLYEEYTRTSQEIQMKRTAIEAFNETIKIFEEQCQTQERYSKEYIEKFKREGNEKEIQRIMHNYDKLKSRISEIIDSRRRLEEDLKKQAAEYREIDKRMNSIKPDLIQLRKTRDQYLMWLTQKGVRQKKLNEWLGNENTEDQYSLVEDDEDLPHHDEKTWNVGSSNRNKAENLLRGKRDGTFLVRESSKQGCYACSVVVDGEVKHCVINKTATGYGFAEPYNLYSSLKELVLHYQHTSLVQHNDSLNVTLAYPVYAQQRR
T3 sequence (O00329 whole entry): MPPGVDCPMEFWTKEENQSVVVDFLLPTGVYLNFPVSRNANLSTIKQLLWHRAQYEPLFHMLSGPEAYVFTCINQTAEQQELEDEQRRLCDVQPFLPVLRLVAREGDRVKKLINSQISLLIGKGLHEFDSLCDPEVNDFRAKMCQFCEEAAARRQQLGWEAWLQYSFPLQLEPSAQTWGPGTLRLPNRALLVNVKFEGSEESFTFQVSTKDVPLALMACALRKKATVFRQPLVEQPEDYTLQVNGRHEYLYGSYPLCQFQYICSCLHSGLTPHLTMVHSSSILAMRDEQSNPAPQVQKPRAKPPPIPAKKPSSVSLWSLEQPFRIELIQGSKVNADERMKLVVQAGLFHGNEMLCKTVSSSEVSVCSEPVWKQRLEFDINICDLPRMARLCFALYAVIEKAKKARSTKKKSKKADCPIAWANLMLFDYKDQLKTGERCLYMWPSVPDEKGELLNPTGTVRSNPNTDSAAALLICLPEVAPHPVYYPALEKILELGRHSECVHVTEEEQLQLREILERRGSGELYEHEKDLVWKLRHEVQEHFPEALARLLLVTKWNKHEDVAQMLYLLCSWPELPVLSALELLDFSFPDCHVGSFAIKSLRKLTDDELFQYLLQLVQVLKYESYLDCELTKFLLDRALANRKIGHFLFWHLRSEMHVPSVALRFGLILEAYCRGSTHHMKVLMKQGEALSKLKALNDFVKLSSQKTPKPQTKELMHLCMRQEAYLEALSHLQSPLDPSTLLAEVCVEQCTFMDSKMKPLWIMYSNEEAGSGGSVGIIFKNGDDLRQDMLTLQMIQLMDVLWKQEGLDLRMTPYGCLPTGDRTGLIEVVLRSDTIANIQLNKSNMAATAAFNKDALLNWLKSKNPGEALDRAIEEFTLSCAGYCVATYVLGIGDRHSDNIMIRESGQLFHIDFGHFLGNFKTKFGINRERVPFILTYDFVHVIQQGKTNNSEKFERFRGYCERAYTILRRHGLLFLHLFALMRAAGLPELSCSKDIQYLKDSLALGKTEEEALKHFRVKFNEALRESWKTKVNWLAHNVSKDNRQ
T3 sequence (P27986 whole entry partner): as the sequence (P27986 whole entry partner) above

SMILES	inhibition at 1 µM (PI3K α) [%]	inhibition at 10 µM (PI3K α) [%]	Inhibition rate % to PI3 K γ (PI3 K γ; 1 μM) [%]	Inhibition rate % to PI3 K γ (PI3 K γ; 10 μM) [%]	IC50 [1] [µM]	IC50 [2] [µM]	Inhibition rate % to PI3Kδ (PI3Kδ; 1 μM (Table 7), dihydrate di-methanesulfonate, 1 µM) [%]	inhibition at 10 µM (PI3Kδ; [3]) [%]	inhibition at 1 µM (PI3 K γ; 1 μM, read-out: Inhibition rate % to PI3 K γ) [%]	inhibition at 10 µM (PI3 K γ; 10 μM, read-out: Inhibition rate % to PI3 K γ) [%]	inhibition at 0.4 µM (PI3Kδ; 0.4 μM (Table 8), read-out: Inhibition rate % to PI3K delta) [%]	inhibition at 1 µM (PI3Kδ; 1 μM (Table 7), read-out: Inhibition rate % to PI3Kδ) [%]	inhibition at 10 µM (PI3Kδ; 10 μM (Table 8), read-out: Inhibition rate % to PI3K delta) [%]	inhibition at 2 µM (PI3Kδ; read-out: Inhibition rate % to PI3K delta) [%]
c1ccc(-c2ccnc3ccc(Nc4nc(NC5CC5)c5nc[nH]c5n4)cc23)cc1 [MED1007-91, N6-cyclopropyl-N2-(4-phenylquinoline-6-yl)-9H-purine-2,6-diammonium salt dihydrate di-methanesulfonate]	97	124	29.82	81.29	0.523	0.654	96.32	115						
COC[C@H]1OC(=O)c2coc3c2[C@@]1(C)C1=C(C3=O)[C@@H]2CCC(=O)[C@@]2(C)C[C@H]1OC(C)=O [Wortmannin, reference compound]	109	105			5.21	21.6		108	105	101	93.4	95.4	105	109
